The values below come from patent publication US20240067651A1 (Biohaven Therapeutics Ltd., priority 2019, published 2024).

Series [1] can be described thus: Stability in Simulated Intestinal Fluid (SIF). It counts as in vitro ADME. On the set-up: key: % parent compound remaining relative to 0-minute sample. As to the method: (§1) Simulated gastric fluid (SGF) and Simulated intestinal fluid (SIF) stability are in vitro metrics indicating the ability of a compound to pass through the gastrointestinal tract […] or completely digested. An undigested or nearly undigested compound will usually survive gut transit long enough to be absorbed into the systemic circulation. Greater than 50% remaining intact compound at 1 hour indicates a relatively stable molecule that will likely be absorbed in the gut.
(§2) For each test compound, samples at a final concentration of 2 μg/mL are prepared in respective blank simulated gastric fluid with pepsin (pH 1.2) and simulated intestinal fluid with pancreatin (pH 6.8). All samples are incubated at 37° C. on a 150-rpm orbital shaker, and an aliquot is removed at predetermined time points (0 to 60 minutes). Samples are precipitated with three volumes of acetonitrile containing propranolol as internal standard, and centrifuged for 10 min at 2,000 g before LC-MS/MS analysis of the supernatant solutions. Percent parent compound remaining is determined relative to 0-minute incubation samples. If a sufficient number of time points are available, the degradation half-life is calculated based on the natural log of % compound remaining vs. time plot.

The nature of series [2]: Plasma Stability. It counts as in vitro ADME, human. As to the method: Plasma stability estimates the ability of a compound to remain intact in the blood. For prodrugs that are intended to be hydrolyzed by plasma enzymes a certain level of instability in plasma indicates the compound is probably breaking down to the parent drug. A stability range of 25-75% remaining parent compound after 1 hour in plasma indicates the compound is likely breaking down to the parent drug molecule and a patient will be exposed to this parent molecule.
Assessment of plasma stability was carried out by individual incubations of drug candidates in fresh human plasma at a concentration of 1 μM for 1 hour at 37° C. After which, the samples were de-proteinized by addition of 2 volumes of acetonitrile containing 0.1% formic acid and internal standard, vortex mixed for 2 minutes and centrifuged at 4,000 rpm for 10 minutes to pellet precipitated protein. The resulting supernatant containing the drug candidates was diluted 5-fold with water containing 0.1% formic acid and submitted to LCMS/MS analysis. All determinations were done in triplicate. Plasma stability was expressed as percent of control remaining.
See Pelletier et al. ACS Med. Chem. Lett. 2018, 9, 752-756.

Series [3] can be described thus: Stability in Simulated Gastric Fluid (SGF). The series is classed as in vitro ADME. On the set-up: key: % parent compound remaining relative to 0-minute sample. As to the method: as §1, §2
The mark [4] stands for this setting: simulated intestinal fluid, at 1 h.
The mark [5] stands for this setting: simulated gastric fluid, at 1 h.
[6] abbreviates: bare number, unit or time not given.
The mark [7] stands for this setting: simulated intestinal fluid, remaining at 1 h.
Setting [8] is: simulated gastric fluid, remaining at 1 h.

With `Cc1ccccc1N(C)C(=O)OCn1ccc2c1c(=O)[nH]c(=S)n2CCOC(C)C` [Example 251], in series [1] (setting [4]), the SIF was 100% remaining. Further, in series [2] (human plasma, at 1 h), the “human Plasma stability” value is on record as 96% remaining. Besides, in series [3] (setting [5]), the SGF is on record as 99% remaining.
The like results for `Cc1cccc(N(C)C(=O)OCn2ccc3c2c(=O)[nH]c(=S)n3CCOC(C)C)c1` [Example 252] were, in that order, 80% remaining, 100% remaining and 100% remaining.
Turning to `CC(C)OCCn1c(SCOC(=O)[C@@H](N)Cc2ccccc2)nc(=O)c2[nH]ccc21.O=C(O)C(F)(F)F` [Example 310, trifluoroacetic acid ({4-oxo-1-[2-(propan-2-yloxy)ethyl]-1H,4H,5H-pyrrolo[3,2-d]pyrimidin-2-yl}sulfanyl)methyl (2S)-2-amino-3-phenylpropanoate], the SIF in series [1] (% remaining @ 1 h) was 32% @ 1 h. The “human Plasma stability” value in series [2] (% remaining @ 1 h) turned out to be 4% @ 1 h. In series [3] (% remaining @ 1 h), the SGF is 99% @ 1 h.
Turning to `CC(C)C[C@@H](N)C(=O)OCn1ccc2c1c(=O)[nH]c(=S)n2CCOC(C)C.O=C(O)C(F)(F)F` [Example 324, trifluoroacetic acid {4-oxo-1-[2-(propan-2-yloxy)ethyl]-2-sulfanylidene-1H,2H,3H,4H,5H-pyrrolo[3,2-d]pyrimidin-5-yl}methyl (2R)-2-amino-4-methylpentanoate], the SIF in series [1] (% remaining @ 1 h) was 24%@ 1 h. Besides, in series [2] (% remaining @ 1 h), the “human Plasma stability” value is recorded as 1%@ 1 h. For the same compound, in series [3] (% remaining @ 1 h), the SGF is reported as 98%@ 1 h.
The like results for `CC(C)OCCn1c(=S)[nH]c(=O)c2c1ccn2COC(=O)CCCCOC(=O)CNC(=O)OC(C)(C)C` [Example 328, {4-oxo-1-[2-(propan-2-yloxy)ethyl]-2-sulfanylidene-1H,2H,3H,4H,5H-pyrrolo[3,2-d]pyrimidin-5-yl}methyl 5-[(2-{[(tert-butoxy)carbonyl]amino}acetyl)oxy] pentanoate] were, in that order, 6%@ 1 h, 11%@ 1 h and 97%@ 1 h.
Take `CC(C)OCCn1c(=S)n(COC(=O)CCCCOC(=O)[C@@H](N)C(C)C)c(=O)c2c1ccn2COC(=O)CCCCOC(=O)[C@@H](N)C(C)C.O=C(O)C(F)(F)F.O=C(O)C(F)(F)F` [Example 337, bis(trifluoroacetic acid) (3-{[(5-{[(2S)-2-amino-3-methylbutanoyl]oxy}pentanoyl)oxy]methyl}-4-oxo-1-[2-(propan-2-yloxy)ethyl]-2-sulfanylidene-1H,2H,3H,4H,5H-pyrrolo[3,2-d]pyrimidin-5-yl)methyl 5-{[(2S)-2-amino-3-methylbutanoyl]oxy}pentanoate]: in series [1] (setting [6]), the SIF was 30. In addition, the “human Plasma stability” value in series [2] (% remaining @ 1 h) was 60% remaining. Also, the SGF in series [3] (setting [6]) is on record as 98.
On the same counts, the results for `CC(C)OCCn1c(=S)[nH]c(=O)c2c1ccn2COC(=O)CCCCOC(=O)[C@H](N)C(C)C.O=C(O)C(F)(F)F` [Example 338, trifluoroacetic acid {4-oxo-1-[2-(propan-2-yloxy)ethyl]-2-sulfanylidene-1H,2H,3H,4H,5H-pyrrolo[3,2-d]pyrimidin-5-yl}methyl 5-{[(2R)-2-amino-3-methylbutanoyl]oxy}pentanoate] are 3, 4% remaining and 99.
As to `CC(C)OCCn1c(=S)[nH]c(=O)c2c1ccn2COC(=O)OCCOCCN.O=C(O)C(F)(F)F` [Example 354, trifluoroacetic acid 2-(2-aminoethoxy)ethyl {4-oxo-1-[2-(propan-2-yloxy)ethyl]-2-sulfanylidene-1H,2H,3H,4H,5H-pyrrolo[3,2-d]pyrimidin-5-yl}methyl carbonate], the SIF in series [1] (setting [7]) was 3% remaining. The “human Plasma stability” value in series [2] (human plasma, remaining at 1 h) came to 1% remaining. Moreover, the SGF in series [3] (setting [8]) is 99% remaining.
The like results for `CC(C)OCCn1c(SCOC(=O)N(C)CCOCCN)nc(=O)c2[nH]ccc21.O=C(O)C(F)(F)F` [Example 380, trifluoroacetic acid ({4-oxo-1-[2-(propan-2-yloxy)ethyl]-1H,4H,5H-pyrrolo[3,2-d]pyrimidin-2-yl}sulfanyl) methyl N-[2-(2-aminoethoxy)ethyl]-N-methylcarbamate] were, in that order, 99% remaining, 85% remaining and 100% remaining.
The like results for `CC(C)OCCn1c(SCOC(=O)N(C)CCOCCN)nc(=O)c2c1ccn2COC(=O)N(C)CCOCCN.O=C(O)C(F)(F)F.O=C(O)C(F)(F)F` [Example 382, bis(trifluoroacetic acid) (2-{[({[2-(2-aminoethoxy)ethyl](methyl)carba-moyl}oxy)methyl]sulfanyl}-4-oxo-1-[2-(propan-2-yloxy)ethyl]-1H,4H,5H-pyrrolo[3,2-d]pyrimidin-5-yl)methyl N-[2-(2-aminoethoxy)ethyl]-N-methylcarbamate] were, in that order, 99% remaining, 98% remaining and 100% remaining.
In the case of “(2R)-2-{[(tert-butoxy)carbonyl]amino}-3-methyl-N-{2-[2-(2-{[{{4-oxo-1-[2-(propan-2-yloxy)ethyl]-2-sulfanylidene-1H,2H,3H,4H,5H-pyrrolo[3,2-d]pyrimidin-5-yl}methoxy)carbonyl]oxy}ethoxy)eth-oxy]ethyl}butanamide [Example 377]”, in series [1] (simulated intestinal fluid, bare number, unit or time not given), the SIF is 11. Besides, in series [2] (human plasma, remaining at 1 h), the “human Plasma stability” value is listed as 8% remaining. Moreover, in series [3] (simulated gastric fluid, bare number, unit or time not given), the SGF is listed as 83.
For the compound “({4-oxo-1-[2-(propan-2-yloxy)ethyl]-1H,4H,5H-pyrrolo[3,2-d]pyrimidin-2 yl}sulfanyl)methyl N-butylcarbamate [Example 185]”, the SIF in series [1] (% remaining at 1 h in simulated intestinal fluid, the 15th table) was 67% @ 1 h. Also, the “human Plasma stability” value in series [2] (% remaining at 1 h in human plasma, the 15th table) stood at 96% @ 1 h. In series [3] (% remaining at 1 h in simulated gastric fluid, the 15th table), the SGF was 78% @ 1 h.
Turning to “N-[2-(2-aminoethoxy)ethyl]-4-oxo-1-[2-(propan-2-yloxy)ethyl]-2-sulfanylidene-1H, 2H,3H,4H,5H-pyrrolo[3,2-d]pyrimidine-5-carboxamide; trifluoroacetic acid [Example 376]”, the SIF in series [1] (setting [7]) was 99% remaining. Besides, the “human Plasma stability” value in series [2] (human plasma, remaining at 1 h) came to 95% remaining. Besides, the SGF in series [3] (setting [8]) is on record as 98% remaining.
Turning to “bis(trifluoroacetic acid) 5-{[2-({[(5-{[(2R)-2-amino-4-methylpentanoyl]oxy}penta-noyl)oxy]methyl}sulfanyl)-4-oxo-1-[2-(propan-2-yloxy)ethyl]-1H,4H,5H-pyrrolo[3,2-d]pyrimidin-5-yl]methoxy}-5-oxopentyl (2R)-2-amino-4-methylpentanoate [Example 351]”, the SIF in series [1] (setting [7]) was 14% remaining. Further, in series [2] (human plasma, remaining at 1 h), the “human Plasma stability” value is listed as 99% remaining. Moreover, in series [3] (setting [8]), the SGF is recorded as 69% remaining.
On to “butoxy)carbonyl]amino}ethoxy)eth-yl](methyl)carbamoyl}oxy)methyl]sul-fanyl}-4-oxo-1-[2-(propan-2-yloxy)ethyl]-1H,4H,5H-pyrrolo[3,2-d]pyrimidin-5-yl)methoxy]carbonyl}(methyl)ami-no)ethoxy]ethyl}carbamate [Example 381]”, for which the SIF in series [1] (setting [7]) is 97% remaining. For the same compound, the “human Plasma stability” value in series [2] (human plasma, remaining at 1 h) was found to be 97% remaining. Besides, the SGF in series [3] (setting [8]) is recorded as 82% remaining.
Take “tert-butyl N-(2-{2-[methyl({[{{4-oxo-1-[2-(propan-2-yloxy)ethyl]-1H,4H,5H-pyrrolo[3,2-d]pyrimidin-2-yl}sulfanyl)methoxy]carbonyl})ami-no]ethoxy}ethyl)carbamate [Example 379]”: the SIF in series [1] (setting [7]) is 69% remaining. The “human Plasma stability” value in series [2] (human plasma, remaining at 1 h) is 0% remaining. Besides, in series [3] (setting [8]), the SGF was 93% remaining.
As to “{4-oxo-1-[2-(propan-2-yloxy)ethyl]-2-sulfanylidene-1H,2H,3H,4H,5H-pyrrolo[3,2-d]pyrimidin-5-yl}methyl (2R)-1-[2-(2-{[(tert-butoxy)carbonyl]amino}acetamido) acetyl]pyrrolidine-2-carboxylate [Example 405]”, the SIF in series [1] (% remaining after 1 h in simulated intestinal fluid) was 81% remaining. Moreover, the “human Plasma stability” value in series [2] (% remaining after 1 h in human plasma) is 1% remaining. The SGF in series [3] (% remaining after 1 h in simulated gastric fluid) is recorded as 83% remaining.
